Measured values published in patent US11883407B2, “Medicament for the treatment of chronic cough” (Shionogi & Co., Ltd., priority 2018, dated 2024).

System: patients with refractory/unexplained chronic cough
Assay: Phase II double-blind cross-over comparative study: cough frequency and Leicester Cough Questionnaire
Assay type: in vivo, human
Description: A Phase II double-blind cross-over comparative study was conducted in patients with refractory/unexplained chronic cough.
In patients with refractory/unexplained chronic cough, the placebo-adjusted change from baseline in the number of coughs per hour during daytime (7 am to 7:59 pm, which means right before 8:00 pm) after 2 weeks of administration of the compound represented by Formula (I), and its significance were evaluated. Similarly, the placebo-adjusted change from baseline in the number of coughs per hour in 24 hours after administration of the compound represented by Formula (I) and its significance were also evaluated.
The placebo-adjusted change is defined by the following equation.
The trial was conducted as a placebo-controlled, multicenter, randomized, double-blind, cross-over comparative study. The study consists of a screening phase (1 to 4 weeks), a first treatment phase (15 days), a drug holiday (2 to 3 weeks), a second treatment phase (15 days) and a follow-up phase (1 week).
Subjects (20 females, 11 males, mean age of 50.0 years) were randomly assigned to either the group receiving the compound according to Formula (I) first or the group receiving the placebo first. The subjects in the group receiving the compound according to Formula (I) first received orally tablets containing 150 mg of the compound according to Formula (I) (50 mg, 3 tablets), and the subjects in the group receiving the placebo first received orally placebo tablets (3 tablets), from the day following the first treatment phase once daily in the morning for 2 weeks.
(For the number of coughs per hour during daytime in each of the first and second treatment phases, the mixed effect model was applied, with the common logarithms of the ratio to the baseline after 2 weeks of administration as the responses, the investigational drugs, the administration groups (group receiving the compound represented by Formula (I) first and group receiving the placebo first), and the phases as the fixed effects, the individuals as the random effects, and the common logarithms of the number of coughs per hour at baseline as the covariates.) (Results) A comparison (full analysis population) of the change in the number of coughs per hour in 24 hours is shown in Table 4.
(For the number of coughs per hour in 24 hours in each of the first and second treatment phases, the mixed effect model was applied, with the common logarithms of the ratio to the baseline after 2 weeks of administration as the responses, the investigational drugs, administration groups (group receiving the compound represented by Formula (I) first and group receiving the placebo first), and phases as the fixed effects, the individuals as the random effects, and the common logarithms of the number of coughs per hour at baseline as the covariates.) (Results) A comparison (full analysis population) of the total change in the sum of the three domains of the Leicester Cough Questionnaire [Japanese version] is shown in Table 5.
(For the change from baseline in the total score of the three domains of the Leicester Cough Questionnaire [Japanese version] at the end or discontinuation of each of the first and second treatment phases, the mixed effect model was applied, with the changes from the baseline as the responses, the investigational drugs, phases, and administration groups (group receiving the compound represented by Formula (I) first and group receiving the placebo first) as the fixed effects, the individuals as the random effects, and the total scores of the three domains of the Leicester Cough Questionnaire [Japanese version] at baseline as the covariates.)

[1] = 150 mg once daily, 2 weeks, from baseline, full analysis population
[2] = 150 mg once daily, 2 weeks, full analysis population

Compound: C[C@@H](Cn1c(=O)[nH]/c(=N\c2ccc(Oc3ccccn3)cc2)n(Cc2ccc(Cl)cc2)c1=O)C(=O)O [compound represented by Formula (I), (2S)-3-(3-[(4-Chlorophenyl)methyl]-2,6-dioxo-4-{[4-(pyridin-2-yloxy)phenyl]amino}-3,6-dihydro-1,3,5-triazin-1(2H)-yl)-2-methyl-propanoic acid]
- Drug differences, total score of the three domains of the Leicester Cough Questionnaire (150 mg once daily vs placebo): 1.40
- difference between investigational drug groups in total score of the three domains of the Leicester Cough Questionnaire (150 mg once daily vs placebo, significant difference): 1.40 points
- placebo-adjusted rate of decrease in the number of coughs per hour during daytime (150 mg once daily, 2 weeks): 31.6%
- Estimated amount of change, total score of the three domains of the Leicester Cough Questionnaire (150 mg once daily, 2 weeks, from baseline): 2.46
- Estimated rate of change in number of coughs per hour during daytime [1]: −54.1%
- Estimated rate of change in number of coughs per hour in 24 hours [1]: −52.6%
- Rate of change adjusted by placebo, number of coughs per hour during daytime [2]: −31.6%
- Rate of change adjusted by placebo, number of coughs per hour in 24 hours [2]: −30.9%
- placebo-adjusted rate of decrease in the number of coughs per hour in 24 hours (150 mg once daily, 2 weeks, significant difference): 30.9%
